Experimental data as given in article PMC7997155, “Permeability of the Cyanotoxin Microcystin-RR across a Caco-2 Cells Monolayer” (Toxins, 2021).
Starred links: 1 amine or outer side, 2 acyl side, 3 side chain; linkers in the order of their positions; H or OH if unused. Positions of bridges follow the written chain, without caps; N, C: chain ends. Non-standard residues stand in square brackets, D forms with d. Residues, ends and D or L forms follow the SMILES beside them. Adda = CO[C@@H](Cc1ccccc1)[C@@H](C)/C=C(C)/C=C/[C@H](N[*:1])[C@H](C)C(=O)[*:2]; dAsp(3S-Me) = C[C@H](C(=O)[*:3])[C@@H](N[*:1])C(=O)[*:2]; d(γGlu) = O=C(O)[C@@H](CCC(=O)[*:2])N[*:1]; NMeDha = C=C(NC)C(=O)O

Tests used:
Caco-2 cell monolayers = settings: Caco-2 monolayers; ref historical data generated in our laboratory; cited from earlier work
Method: Experiments were performed as previously described, with a few modifications, described as follows. Four solutions of MC-RR (1, 10, 25, and 55 µM) were prepared in the transport buffer (HBSS, 4-(2-Hydroxyethyl)piperazine-1-ethanesulfonic acid (HEPES) 5 mM, pH 7.4) in glass vials and loaded into the donor compartments: 300 µL in compartments A (for A–B transport experiments) and 1000 µL in compartment B (for B–A transport experiments). The final concentration of methanol in the transport buffer for all MC-RR solutions was set at 1.3%, which was previously shown not to alter the integrity ...

Caco-2 cell monolayer = assay type: in vitro ADME, human
[1] = Binding to plastic (preliminary experiment); assay type: in vitro ADME
Method: Experiments were performed as previously described, with a few modifications, described as follows. Four solutions of MC-RR (1, 10, 25, and 55 µM) were prepared in the transport buffer (HBSS, 4-(2-Hydroxyethyl)piperazine-1-ethanesulfonic acid (HEPES) 5 mM, pH 7.4) in glass vials and loaded into the donor compartments: 300 µL in compartments A (for A–B transport experiments) and 1000 µL in compartment B (for B–A transport experiments). The final concentration of methanol in the transport buffer for all MC-RR solutions was set at 1.3%, which was previously shown not to alter the integrity of Caco-2 cell monolayers. In a preliminary experiment, the binding of MC-RR to plastic was checked and considered negligible (data not shown). At different time points (1, 2, 4, 6, and 24 h for A–B transport experiments and 1, 2, 4, and 6 h for B–A transport experiments), the whole volume of each compartment was harvested and stored in glass vials at −20 °C until analysis. Due to the toxicity of methanol 1.3% when applied in compartment B for 24 h, this time point was not performed for B–A experiments. Only Caco-2 cell monolayers with a TEER > 250 ohm.cm² before and after transport experiments were used. […]. These threshold values correspond to those preconized by the European Center for the Validation of Alternatives Methods. Four independent experiments were performed.

Row | Compound | Papp of lucifer yellow corresponding to a TEER value of 250 ohm.cm² (Caco-2 cell monolayers) | Amount detected in the apical compartment (Caco-2 cell monolayer) | Amount detected in the basolateral compartment (Caco-2 cell monolayer) | Decrease of MC-RR amounts in the basolateral (donor) compartment (Caco-2 cell monolayer) | Involvement of an active efflux mechanism (A–B versus B–A Papp) (Caco-2 cell monolayer) | Binding to plastic [1]
1 | lucifer yellow | 0.6 ×10⁻⁶ cm/s | – | – | – | – | –
2 | C=C1C(=O)N[C@H](C)C(=O)N[C@@H](CCCNC(=N)N)C(=O)N[C@@H](C(=O)O)[C@H](C)C(=O)N[C@@H](CCCNC(=N)N)C(=O)N[C@@H](/C=C/C(C)=C/[C@H](C)[C@H](Cc2ccccc2)OC)[C@H](C)C(=O)N[C@@H](C(=O)O)CCC(=O)N1C [MC-RR, microcystin-RR] (R[Adda][d(γGlu)][NMeDha][dA]R[dAsp(3S-Me)]-OH; lactam N-7) | – | below the lower LOQ | below the lower LOQ | 25 % of the loaded amount | no involvement of an active efflux mechanism | negligible
